Source: the supplement of paper PMC10307832

What was measured:
Test in all cases: relative viability (nuclei count vs DMSO), 5 days (fraction); higher = more cells survive
Indole-3-carbinol = compound: OCc1c[nH]c2ccccc12 [Indole-3-carbinol]
Outline: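 Cells of lung cancer lines were placed in 1536-well plates and kept overnight at 37 °C. Pinning then delivered five library-drug doses (not always all listed), spaced by √10, onto plates anchored with vehicle, and the cells were left 5 days without changing medium. One step fixed, permeabilised and stained them with Hoechst, and MetaXpress counted nuclei in 4× images. Viability, as a median over plates, is treated-well nuclei divided by vehicle-well nuclei, with acceptance only at control CV below 25% and at least one doubling.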

[1] = compound: OCc1c[nH]c2ccccc12 [Indole-3-carbinol] + O=C(CCCCCCC(=O)Nc1ccccc1)NO [Vorinostat] (partner 1 µM)
Outline: (§1)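 Nuclei were stained with Hoechst during a one-step fixation (final 0.05% Triton X-100, 1% formaldehyde, 1 ug/ml Hoechst) carried out 5 days after dosing, then counted on 4× images. The cells, lung cancer lines in 1536-well plates, had been dosed by pin tool the day after seeding with one drug alone or a fixed anchor-drug dose plus five library-drug doses (not always all listed) in √10 steps. Relative viability is the nuclei count in treated wells divided by that in vehicle wells, and each value is the median of duplicate plates.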

[2] = compound: OCc1c[nH]c2ccccc12 [Indole-3-carbinol] + C[C@]1(O)C[C@@H](c2nc(-c3ccc4ccc(-c5ccccc5)nc4c3)c3c(N)nccn32)C1 [Linsitinib] (partner 1 µM)
Outline: as §1

[3] = compound: OCc1c[nH]c2ccccc12 [Indole-3-carbinol] + CCNC(=O)c1noc(-c2cc(C(C)C)c(O)cc2O)c1-c1ccc(CN2CCOCC2)cc1 [Luminespib] (partner 0.01 µM)
Outline: as §1

[4] = compound: OCc1c[nH]c2ccccc12 [Indole-3-carbinol] + C[C@@H](Oc1cc(-c2cnn(C3CCNCC3)c2)cnc1N)c1c(Cl)ccc(F)c1Cl [Crizotinib] (partner 1 µM)
Outline: as §1

Cell Line | relative viability (Indole-3-carbinol; 0.253 µM) | relative viability (Indole-3-carbinol; 0.8 µM) | relative viability (Indole-3-carbinol; 2.53 µM) | relative viability (Indole-3-carbinol; 8 µM) | relative viability ([1]; first compound 0.253 µM) | relative viability ([1]; first compound 0.8 µM) | relative viability ([1]; first compound 2.53 µM) | relative viability ([1]; first compound 8 µM) | relative viability ([2]; first compound 0.253 µM) | relative viability ([2]; first compound 0.8 µM) | relative viability ([2]; first compound 2.53 µM) | relative viability ([2]; first compound 8 µM) | relative viability ([3]; first compound 0.253 µM) | relative viability ([3]; first compound 0.8 µM) | relative viability ([3]; first compound 2.53 µM) | relative viability ([3]; first compound 8 µM) | relative viability ([4]; first compound 0.253 µM) | relative viability ([4]; first compound 0.8 µM) | relative viability ([4]; first compound 2.53 µM) | relative viability ([4]; first compound 8 µM)
LU99A | 0.946 | 0.915 | 1.01 | 0.905 | 0.504 | 0.514 | 0.59 | 0.455 | 0.501 | 0.556 | 0.428 | 0.536 | 0.237 | 0.199 | 0.209 | 0.207 | 0.569 | 0.568 | 0.532 | 0.506
LXF-289 | 1.09 | 1.1 | 1 | 0.946 | 0.836 | 0.795 | 0.733 | 0.76 | 0.977 | 1.03 | 0.996 | 0.892 | 0.787 | 0.754 | 0.647 | 0.575 | 0.863 | 0.933 | 0.824 | 0.729
NCI-H23 | 1.04 | 1.08 | 1.05 | 0.925 | 0.516 | 0.615 | 0.704 | 0.587 | 0.668 | 0.649 | 0.722 | 0.485 | 0.219 | – | 0.233 | 0.223 | 0.679 | 0.497 | 0.55 | 0.509
NCI-H322M | 0.84 | 0.973 | 0.859 | 0.866 | 0.713 | 0.8 | 0.902 | 0.779 | 0.9 | 0.899 | 0.974 | 0.839 | 0.828 | 0.861 | 0.895 | 0.783 | 1.09 | 0.989 | 1 | 0.892
NCI-H358 | 0.947 | 0.916 | 0.917 | 0.94 | 0.763 | 0.752 | 0.684 | 0.624 | 0.697 | 0.7 | 0.734 | 0.709 | 0.366 | 0.447 | 0.458 | 0.233 | 0.64 | 0.698 | 0.735 | 0.461
NCI-H441 | 1.1 | 1.28 | 1.15 | 1.11 | 0.823 | 1.05 | 1.09 | 0.758 | 0.582 | 0.688 | 0.576 | 0.441 | 0.324 | 0.334 | 0.456 | 0.301 | 0.724 | 0.609 | 0.824 | 0.76
NCI-H460 | 1.04 | 0.975 | 0.978 | 0.957 | 0.768 | 0.76 | 0.754 | 0.683 | 0.773 | 0.875 | 0.713 | 0.689 | 0.0368 | 0.037 | 0.0298 | 0.0346 | 1.03 | 0.895 | 0.925 | 0.851
NCI-H520 | 0.925 | 0.848 | 1.05 | 0.902 | 0.707 | 0.7 | 0.87 | 0.692 | 1.04 | 0.872 | 1.24 | 0.854 | 0.188 | 0.178 | 0.219 | 0.211 | 0.826 | 0.948 | 1.02 | 0.754
NCI-H596 | 1.07 | 0.948 | 0.967 | 1 | 0.552 | 0.522 | 0.565 | 0.675 | 1.02 | 1.08 | 1.07 | 0.954 | 0.734 | 1.01 | 0.913 | 1 | 0.876 | 1.13 | 0.989 | 1
NCI-H647 | 1.06 | 0.703 | 1.1 | 0.948 | 0.731 | 0.529 | 0.731 | 0.538 | 1.08 | 1.44 | 1.13 | 1.04 | 0.261 | 0.199 | 0.156 | 0.236 | 1.23 | 1.13 | 1.04 | 1.01
NCI-H650 | 1 | 1.03 | 1.05 | 0.893 | 0.654 | 0.454 | 0.411 | 0.456 | 0.948 | 0.773 | 0.909 | 0.712 | 0.785 | 0.882 | 0.844 | 0.647 | 0.716 | 0.729 | 0.8 | 0.638
NCI-H661 | 0.957 | 0.904 | 1.03 | 0.988 | 0.762 | 0.816 | 0.874 | 0.716 | 0.542 | 0.378 | 0.623 | 0.676 | 0.922 | 0.952 | 0.965 | 0.895 | 1.05 | – | 1.16 | 0.977
NCI-H727 | 0.963 | 0.943 | 0.969 | 1.05 | 1.13 | 1.12 | 1.36 | 1.23 | 0.178 | 0.31 | 0.268 | 0.283 | 0.355 | 0.452 | 0.344 | 0.328 | 0.795 | 1.05 | 0.906 | 0.832
NCI-H838 | 1.01 | 0.935 | 0.98 | 0.935 | 0.741 | 0.737 | 0.766 | 0.654 | 1.09 | 0.975 | 1.02 | 0.951 | 0.292 | 0.305 | 0.308 | 0.303 | 0.972 | 0.717 | 0.97 | 0.828
NCI-H1355 | 1 | 1.11 | 0.97 | 0.961 | 0.612 | 0.69 | 0.667 | 0.63 | 0.774 | 0.802 | 0.764 | 0.715 | 0.754 | 0.764 | 0.618 | 0.643 | 1.17 | 1.08 | 0.971 | 1.06
NCI-H1437 | 1.01 | 1.01 | 0.992 | 0.945 | 0.827 | 0.979 | 0.861 | 0.868 | 0.986 | 1.16 | 1.04 | 0.894 | 1.07 | 1.2 | 1.13 | 1.11 | 0.959 | 1.03 | 0.943 | 0.9
